Data published in ChEMBL document CHEMBL6153148, “Carboxamide-Bearing Panobinostat Analogues Designed To Interact with E103-D104 at the Cavity Opening of Class I HDAC Isoforms” (ACS Med Chem Lett, 2025).

Molecular target: Histone deacetylase 2 (Homo sapiens, UniProt Q92769)
Test: Inhibition of human HDAC2 using RHKKAc as substrate by fluorescence based analysis

Sequence of Histone deacetylase 2 (Q92769 whole entry): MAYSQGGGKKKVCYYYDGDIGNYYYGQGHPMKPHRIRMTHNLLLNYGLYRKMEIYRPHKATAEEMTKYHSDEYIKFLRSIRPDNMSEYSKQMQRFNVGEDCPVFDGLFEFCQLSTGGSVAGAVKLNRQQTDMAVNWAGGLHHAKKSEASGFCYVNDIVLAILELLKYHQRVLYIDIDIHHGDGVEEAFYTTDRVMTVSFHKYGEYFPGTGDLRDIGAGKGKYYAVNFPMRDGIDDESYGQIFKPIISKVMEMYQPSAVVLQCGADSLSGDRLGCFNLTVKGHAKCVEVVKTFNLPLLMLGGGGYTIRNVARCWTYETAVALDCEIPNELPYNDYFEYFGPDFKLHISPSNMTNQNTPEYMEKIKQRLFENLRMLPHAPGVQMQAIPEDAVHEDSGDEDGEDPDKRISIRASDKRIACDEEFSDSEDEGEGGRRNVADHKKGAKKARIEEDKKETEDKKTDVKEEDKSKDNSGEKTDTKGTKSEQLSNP

Structure (SMILES) | IC50 [nM]
NC(=O)[C@@H]1Cc2c([nH]c3ccccc23)[C@H](c2ccc(/C=C/C(=O)NO)cc2)N1 | 450
Cc1[nH]c2ccccc2c1C[C@@H](NCc1ccc(/C=C/C(=O)NO)cc1)C(N)=O | 530
NC(=O)[C@H]1Cc2c([nH]c3ccccc23)[C@H](c2ccc(/C=C/C(=O)NO)cc2)N1 | 3320
NC(=O)[C@@H](Cc1c[nH]c2ccccc12)NCc1ccc(/C=C/C(=O)NO)cc1 | 420
Cc1[nH]c2ccccc2c1C[C@H](NCc1ccc(/C=C/C(=O)NO)cc1)C(N)=O | 150
NC(=O)[C@H]1Cc2c([nH]c3ccccc23)[C@@H](c2ccc(/C=C/C(=O)NO)cc2)N1 | 3320
NC(=O)[C@H](Cc1c[nH]c2ccccc12)NCc1ccc(/C=C/C(=O)NO)cc1 | 350
NC(=O)[C@@H]1Cc2c([nH]c3ccccc23)[C@@H](c2ccc(/C=C/C(=O)NO)cc2)N1 | 450
